Laboratory results from US7521458B2, “Spiropiperidylrifamycins for the treatment of mycobacterial infections” (priority 2004, dated 2009).
Where two headings read alike, the source gives them in different places.

Tests used:
Assay type in all cases: cell-based
[1] = system: Mycobacterium tuberculosis multiresistant 17 strains assayed; conditions: for % Sensitivity: 17 strains; for n° (sensitive strains): of 17 strains
[2] = system: multiresistant Mycobacterium tuberculosis; experiment: microbe, parasite or virus in culture; conditions: for MIC: Mycobacterium tuberculosis; for sensitivity (of strains): concentration of about 1 μg/ml, all strains of Example 34; for antimycobacterial activity compared with rifampicin and rifabutin: in vitro, in words
[3] = system: Mycobacterium tuberculosis 4 strains assayed; conditions: for % Sensitivity: 4 strains; for n° (sensitive strains): of 4 strains
[4] = concentration analized 0.1 μg/ml
[5] = concentration analized 0.5 μg/ml

Compound: NNC(=O)c1ccncc1 [IZ, isoniazid]
- Sensitivity of strains (S/R) ([1]; concentration analized 0.2 μg/ml): R (R means resistent)
- MIC [2]: > 256 µg/mL

Compound: 4-deoxo-3,4-[(2R)-2-spiro[2,6-bis(4-fluorophenyl)-4-piperidil]-2,5-dihydro-1H-imidazo]rifamycin S [RFA 5M]
- % Sensitivity [3, 4]: 25%
- n° (sensitive strains) [3, 4]: 1
- % Sensitivity [3, 5]: 50%
- n° (sensitive strains) [3, 5]: 2
- % Sensitivity ([3]; concentration analized 1 μg/ml): 100%
- n° (sensitive strains) ([3]; concentration analized 1 μg/ml): 4
- % Sensitivity [1, 4]: 17%
- n° (sensitive strains) [1, 4]: 3
- % Sensitivity [1, 5]: 82%
- n° (sensitive strains) [1, 5]: 14
- % Sensitivity ([1]; concentration analized 1 μg/ml): 100%
- n° (sensitive strains) ([1]; concentration analized 1 μg/ml): 17
- sensitivity (of strains) [2]: about 100%
- antimycobacterial activity compared with rifampicin and rifabutin [2]: much superior to rifampicin and to rifabutin

Compound: CO[C@H]1/C=C/O[C@@]2(C)Oc3c(C)c(O)c4c(c3C2=O)C2=NC3(CCN(CC(C)C)CC3)NC2=C(NC(=O)/C(C)=C\C=C\[C@H](C)[C@H](O)[C@@H](C)[C@@H](O)[C@@H](C)[C@H](OC(C)=O)[C@@H]1C)C4=O [RFB, rifabutin]
- sensitivity (of strains) [2]: about 14.3%

Compound: 4-deoxo-3,4-[(2R)-2-spiro(2,6-diphenyl-4-piperidyl)-2,5-dihydro-1H-imidazo]rifamycin S [RFA 3M]
- % Sensitivity [3, 4]: 25%
- n° (sensitive strains) [3, 4]: 1
- % Sensitivity [3, 5]: 50%
- n° (sensitive strains) [3, 5]: 2
- % Sensitivity ([3]; concentration analized 1 μg/ml): 100%
- n° (sensitive strains) ([3]; concentration analized 1 μg/ml): 4
- % Sensitivity [1, 4]: 23%
- n° (sensitive strains) [1, 4]: 4
- % Sensitivity [1, 5]: 75%
- n° (sensitive strains) [1, 5]: 13
- % Sensitivity ([1]; concentration analized 1 μg/ml): 94%
- n° (sensitive strains) ([1]; concentration analized 1 μg/ml): 16
- sensitivity (of strains) [2]: about 95.2%
- antimycobacterial activity compared with rifampicin and rifabutin [2]: much superior to rifampicin and to rifabutin

Compound: CO[C@H]1/C=C/O[C@@]2(C)Oc3c(C)c(O)c4c(O)c(c(/C=N/N5CCN(C)CC5)c(O)c4c3C2=O)NC(=O)/C(C)=C\C=C\[C@H](C)[C@H](O)[C@@H](C)[C@@H](O)[C@@H](C)[C@H](OC(C)=O)[C@@H]1C [RI, rifampicin]
- Sensitivity of strains (S/R) ([3]; concentration analized 1 μg/ml): R (R means resistent)
- Sensitivity of strains (S/R) ([1]; concentration analized 1 μg/ml): R (R means resistent)
- MIC [2]: > 256 µg/mL
